Source: US8563513B2, “Parathyroid hormone peptides and parathyroid hormone-related protein peptides and methods of use” (Van Andel Research Institute, priority 2009, dated 2013)
Like-named read-outs stand apart in the source and are kept apart here. Where no end group is shown, it is not given here.

Columns and labels:
[1] = target: T1, G protein-coupled receptor (RG) conformation of PTH1R (Homo sapiens, UniProt Q03431); experiment: Receptor binding assay in cell membranes, RG conformation; conditions: for IC50: n = 3, receptor co-expressed with dominant negative Gαs
T1 construct: expressed in transfected cells
T1 sequence (Q03431 27-593): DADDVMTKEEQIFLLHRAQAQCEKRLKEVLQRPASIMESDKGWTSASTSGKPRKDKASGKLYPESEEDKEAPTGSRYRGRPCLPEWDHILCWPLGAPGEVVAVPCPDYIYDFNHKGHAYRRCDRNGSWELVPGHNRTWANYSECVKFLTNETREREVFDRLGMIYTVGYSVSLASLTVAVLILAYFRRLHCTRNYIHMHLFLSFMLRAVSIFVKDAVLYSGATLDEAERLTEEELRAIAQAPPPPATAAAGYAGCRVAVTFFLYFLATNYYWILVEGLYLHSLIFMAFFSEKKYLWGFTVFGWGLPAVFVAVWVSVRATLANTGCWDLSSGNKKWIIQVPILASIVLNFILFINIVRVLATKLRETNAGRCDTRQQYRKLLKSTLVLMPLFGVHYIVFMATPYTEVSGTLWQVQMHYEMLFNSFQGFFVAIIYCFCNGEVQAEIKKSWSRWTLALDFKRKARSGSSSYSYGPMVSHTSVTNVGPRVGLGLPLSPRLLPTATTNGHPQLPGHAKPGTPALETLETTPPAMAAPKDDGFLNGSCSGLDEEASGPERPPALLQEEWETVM
Procedure: (§1) Receptor binding assay. Peptide binding to the G protein-uncoupled receptor (R0) and G protein-coupled receptor (RG) conformations in cell membranes was assessed as previously described (26).
(§2) Experimentally, the R0 conformation is studied by including GTPγS in the reactions to uncouple receptor and G protein and the RG conformation is studied by co-expressing the receptor with a dominant negative form of Gαs (23, 25).

[2] = target: T2, G protein-uncoupled receptor (R0) conformation of PTH1R (Homo sapiens, UniProt Q03431); experiment: Receptor binding assay in cell membranes, R0 conformation; conditions: for R0 affinity compared to wild-type: in words; for RO/RG: ratio of R0 and RG IC50
T2 sequence (Q03431 27-593): T1 sequence (Q03431 27-593)
Procedure: as §1, §2

PTH1R ECD = target: T3, PTH1R ECD (Homo sapiens, UniProt Q03431); conditions: previous work (27); cited from earlier work
T3 sequence (Q03431 27-186 limits assumed): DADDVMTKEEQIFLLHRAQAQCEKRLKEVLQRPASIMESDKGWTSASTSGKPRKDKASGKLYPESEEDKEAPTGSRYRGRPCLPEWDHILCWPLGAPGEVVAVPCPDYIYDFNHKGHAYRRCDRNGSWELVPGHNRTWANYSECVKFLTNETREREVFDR

[3] = target: T4, MBP-PTH1R ECD-H6 fusion protein (Homo sapiens, UniProt Q03431); experiment: AlphaScreen ECD-peptide competition binding assay; conditions: for ECD-binding (ability to compete biotin-PTH / MBP-PTH1R-ECD interaction): single point, peptide 20 μM, in words; for IC50: biotinylated PTH(7-34)NH2 23 nM, MBP-PTH1R ECD 23 nM, read-out: IC50, competition of the AlphaScreen interaction
T4 construct: fusion protein containing residues 29-187 of PTH1R fused to the C-terminus of MBP; made in house; host or cells: E. coli
T4 sequence (Q03431 29-187): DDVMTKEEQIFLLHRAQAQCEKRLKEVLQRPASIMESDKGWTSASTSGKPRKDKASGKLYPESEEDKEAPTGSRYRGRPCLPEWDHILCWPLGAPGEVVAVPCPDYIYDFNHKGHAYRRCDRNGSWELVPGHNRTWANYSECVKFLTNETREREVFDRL
Procedure: ECD-peptide binding assays. The binding of peptides to the MBP-PTH1R ECD-H6 fusion protein was assessed using an AlphaScreen assay (Perkin-Elmer). […] The pre-coupling reactions were mixed, un-labeled competitor peptides were added as indicated, and the reactions were incubated 4 to 5 hrs to reach equilibrium. Photon counts were recorded in 384-well optiplates using an Envision 2104 plate reader (Perkin-Elmer). Prism 5.0 software (GraphPad Software, San Diego) was used to fit the data to a fixed-slope dose-response inhibition equation for determination of IC50 values. Real-time analysis of the binding of peptides to the isolated PTH1R ECD using the Octet Red system (ForteBio) was performed as described in below.

[4] = target: T2, G protein-uncoupled receptor (R0) conformation of PTH1R; conditions: in words, reference (26); cited from earlier work
[5] = target: T1, G protein-coupled receptor (RG) conformation of PTH1R; conditions: in words, reference (26); cited from earlier work
hPTH1R = target: T5, hPTH1R (Homo sapiens, UniProt Q03431); experiment: cAMP accumulation dose-response assay in COS cells; assay type: cell-based
T5 construct: expressed in transfected cells; host or cells: COS-1 cells (ATCC), transient, DEAE-dextran
T5 sequence (Q03431 27-593): T1 sequence (Q03431 27-593)
Procedure: COS cells transiently expressing PTH1R were stimulated with the indicated peptides for 30 min at 37° C. after which the cells were lysed and cAMP content was assessed. […] The cells were stimulated with the indicated peptide for 10 min at room temperature, the ligand was washed out, and cAMP accumulation was assessed at the indicated times after wash out. The results are the average of duplicate samples and are normalized to the level of cAMP induced during the initial stimulation.
cAMP assays. COS-1 cells obtained from American Type Culture Collection (Manassas, Va.) were cultured in Dulbecco's modified Eagle's medium supplemented with 10% fetal bovine serum in a 37° C./5% CO2 incubator. 500,000 cells were seeded in a 10 cm dish and transfected the following morning by the DEAE-dextran method with 3 μg pcDNA3.1 vector encoding hPTH1R. Approximately 40,000 transfected cells were seeded in each well of a 96-well plate 24 hr post-transfection. 48 hrs post-transfection the cells were washed twice with PBS, pH 7.4 and stimulated with peptide. […] The reactions were stopped with cold 6% perchloric acid and the cell lysates were neutralized with KHCO3. cAMP was measured with a LANCE cAMP kit (Perkin-Elmer) according to the manufacturer's instructions. […]

[6] = read-out: IC50 Log M RG (converted)

Row | Molecule | IC50 [1, 6] | RO/RG [2] | also measured
1 | CC[C@H](C)[C@H](NC(=O)[C@H](CC(C)C)NC(=O)[C@H](CCCCN)NC(=O)[C@H](CCCNC(=N)N)NC(=O)[C@H](CC(C)C)NC(=O)[C@H](Cc1c[nH]c2ccccc12)NC(=O)[C@H](CCC(=O)O)NC(=O)[C@@H](NC(=O)[C@H](CCCNC(=N)N)NC(=O)[C@H](CCC(=O)O)NC(=O)[C@H](CCSC)NC(=O)[C@H](CO)NC(=O)[C@H](CC(N)=O)NC(=O)[C@H](CC(C)C)NC(=O)[C@H](Cc1c[nH]cn1)NC(=O)[C@H](CCCCN)NC(=O)CNC(=O)[C@H](CC(C)C)NC(=O)[C@H](CC(N)=O)NC(=O)[C@H](Cc1c[nH]cn1)NC(=O)[C@H](CCSC)NC(=O)[C@H](CC(C)C)NC(=O)[C@H](CCC(N)=O)NC(=O)[C@@H](NC(=O)[C@H](CCC(=O)O)NC(=O)[C@H](CO)NC(=O)[C@@H](NC(=O)[C@@H](N)CO)C(C)C)[C@@H](C)CC)C(C)C)C(=O)N[C@@H](CCC(N)=O)C(=O)N[C@@H](CC(=O)O)C(=O)N[C@H](C(=O)N[C@@H](Cc1c[nH]cn1)C(=O)N[C@@H](CC(N)=O)C(=O)N[C@@H](Cc1ccccc1)C(N)=O)C(C)C [K27L/L28I] | 0.316 nM |  | 
2 | AVSEHQLLHDKGKSIQDLRRRFWLHHKLAEVHTA-NH2 [F23W/L27K/I28L/I31V] | 0.0794 nM | 586 | R0 affinity compared to wild-type [2]: slightly decreased R0 affinity
3 | SVSEIQLMHNLGKHLNSMERVEWLRKKLQDIHNF-NH2 [V31I] | 0.251 nM | 110 | IC50 ([1]; read-out: IC50 (nM) RG): 0.31 nM
4 | SVSEIQLMHNLGKHLNSMERVEFLRKKIQDVHNF-NH2 [W23F/L28I] |  | 190 | IC50 ([1]; read-out: IC50 (nM) RG): 0.2 nM
5 | PTH(15-34)NH2: C-terminally amidated 15-34 fragment of PTH (LNSMERVEWLRKKLQDVHNF-NH2) |  |  | Kd (PTH1R ECD): ~1000 nM
6 | SVSEIQLMHNLGKHLNSMERVEWLRKKIQDIHNF-NH2 [L28I/V31I] | 0.251 nM | 135 | IC50 ([1]; read-out: IC50 (nM) RG): 0.31 nM
7 | quadruply mutant PTHrP peptide: PTHrP(12-34)NH2 scaffold with swaps at all four positions 23′, 27′, 28′, 31′ (GKSIQDLRRRFWLHHKLAEVHTA-NH2) |  |  | ECD-binding (ability to compete biotin-PTH / MBP-PTH1R-ECD interaction) [3]: normal binding to the ECD
8 | SVSEIQLMHNLGKHLNSMERVEFLRKKLQDVHNF-NH2 [W23F] | 0.2 nM | 59 | 
9 | SVSEIQLMHNLGKHLNSMERVEWLRKLLQDVHNF-NH2 [K27L] |  | 11.9 | 
10 | SVSEIQLMHNLGKHLNSMERVEWLRKLLQDIHNF-NH2 [K27L/V31I] | 0.501 nM | 36.8 | 
11 | GKHLNSMERVEWLRKKLQDVHNF-NH2 [PTH(12-34)NH2, reference compound] |  |  | IC50 [3]: ~1000 nM
12 | SVSEIQLMHNLGKHLNSMERVEFLRKLIQDIHNF-NH2 [W23F/K27L/L28I/V31I] | 0.631 nM | 68 | 
13 | CC[C@H](C)[C@H](NC(=O)[C@H](CC(C)C)NC(=O)[C@H](Cc1c[nH]cn1)NC(=O)[C@H](Cc1c[nH]cn1)NC(=O)[C@H](CC(C)C)NC(=O)[C@H](Cc1ccccc1)NC(=O)[C@H](Cc1ccccc1)NC(=O)[C@H](CCCNC(=N)N)NC(=O)[C@H](CCCNC(=N)N)NC(=O)[C@H](CCCNC(=N)N)NC(=O)[C@H](CC(C)C)NC(=O)[C@H](CC(=O)O)NC(=O)[C@H](CCC(N)=O)NC(=O)[C@@H](NC(=O)[C@H](CO)NC(=O)[C@H](CCCCN)NC(=O)CN)[C@@H](C)CC)C(=O)N[C@@H](C)C(=O)N[C@@H](CCC(=O)O)C(=O)N[C@H](C(=O)N[C@@H](Cc1c[nH]cn1)C(=O)N[C@H](C(=O)N[C@@H](C)C(=O)O)[C@@H](C)O)[C@@H](C)CC [PTHrP(12-34)OH, reference compound] |  |  | IC50 [3]: ~2000 nM
14 | SVSEIQLMHNLGKHLNSMERVEFLRKLLQDVHNF-NH2 [W23F/K27L] | 0.251 nM | 26.4 | 
15 | PTH(1-28): PTH fragment 1-28, literature peptide (26) (SVSEIQLMHNLGKHLNSMERVEWLRKKL; Parathyroid hormone; UniProt P01270 32-59, looked up, fragment) |  |  | RG-selectivity compared to PTH(1-34) [4]: more RG-selective; RG affinity compared to PTH(1-34) [5]: diminished RG affinity
16 | SVSEIQLMHNLGKHLNSMERVEFLRKKLQDIHNF-NH2 [W23F/V31I] |  | 386 | ECD-binding (ability to compete biotin-PTH / MBP-PTH1R-ECD interaction) [3]: poor ECD-binding; R0 affinity compared to wild-type [2]: dramatically reduced R0 affinity; RG affinity compared to wild-type ([1]; in words): normal RG affinity; maximal cAMP levels relative to those obtained with the wt peptides (hPTH1R; COS cells transiently expressing PTH1R): ~80%; potency of cAMP response compared to wt peptides (hPTH1R; in words): essentially the same as the wt peptides
17 | SVSEIQLMHNLGKHLNSMERVEWLRKKIQDVHNF-NH2 [L28I] |  | 45 | IC50 ([2]; n = 3, GTPγS to uncouple receptor and G protein, read-out: IC50 Log M RO (converted)): 3.98 nM; IC50 ([1]; read-out: IC50 (nM) RG): 0.1 nM
